# The source made the active and inactive calls. The calls are words filed in the database; no cut-off is given here.
# Assays:
# [1] = molecular target: T1, Metabotropic glutamate receptor 2 (Homo sapiens, UniProt Q14416); test: Positive allosteric modulation of recombinant human mGlu2 receptor expressed in CHO cells assessed as potentiation of glutamate-induced effect preincubated for 5 mins followed by glutamate stimulation for 3 mins by Fluo-4AM staining-based FLIPR assay; type: cell-based
# [2] = Solubility of compound at pH 7; type: physicochemical; details: buffer
# [3] = (§1) AUC in Wistar Hannover rat at 10 mg/kg, po administered as single dose; type: ADME, organism-based; details: Wistar Hannover, in vivo
# [4] = molecular target: Metabotropic glutamate receptor 3 (Homo sapiens, UniProt Q14832); test: Positive allosteric modulation of mGlu3 receptor (unknown origin)
# [5] = molecular target: Metabotropic glutamate receptor 4 (Homo sapiens, UniProt Q14833); test: Positive allosteric modulation of mGlu4 receptor (unknown origin)
# [6] = molecular target: Metabotropic glutamate receptor 5 (Homo sapiens, UniProt P41594); test: Positive allosteric modulation of mGlu5 receptor (unknown origin)
# [7] = molecular target: Metabotropic glutamate receptor 6 (Homo sapiens, UniProt O15303); test: Positive allosteric modulation of mGlu6 receptor (unknown origin)
# [8] = Half life in Wistar Hannover rat at 2 mg/kg, iv administered as single dose; type: ADME, organism-based; details: in vivo
# Rattus norvegicus [9] = test: Fraction unbound adjusted clearance in Wistar Hannover rat at 2 mg/kg, iv administered as single dose; type: ADME, organism-based; details: in vivo
# Rattus norvegicus [10] = test: as §1; type: ADME, organism-based; details: in vivo
# Rattus norvegicus [11] = test: (§2) Oral bioavailability in Wistar Hannover rat at 10 mg/kg administered as single dose; type: ADME, organism-based; details: in vivo
# CYP3A4 [12] = molecular target: T2, CYP3A4 (Homo sapiens, UniProt P08684); test: Inhibition of CYP3A4 in human liver microsomes at 10 uM; type: ADME
# [13] = Fraction unbound in Beagle dog plasma at 0.5 mg/kg, iv administered as single dose; type: ADME, organism-based, Canis lupus familiaris
# [14] = Half life in Beagle dog at 0.5 mg/kg, iv administered as single dose; type: ADME, organism-based, Canis lupus familiaris; details: in vivo
# Canis familiaris = test: Fraction unbound adjusted clearance in Beagle dog at 0.5 mg/kg, iv administered as single dose; type: ADME, organism-based, Canis lupus familiaris; details: in vivo
# Rattus norvegicus [15] = test: Antipsychotic activity in Sprague-Dawley rat assessed as inhibition of MK-801-induced hyperlocomotive activity at 30 mg/kg, treated for 30 mins followed by MK-801 challenge measured over 90 mins relative to vehicle control; type: functional, organism-based
# Cerebrospinal fluid = test: Drug uptake in Sprague-Dawley rat cerebrospinal fluid at 30 mg/kg, po; type: ADME, organism-based; details: in vivo, read-out: Drug uptake
# Salmonella typhimurium [16] = test: Mutagenicity in Salmonella typhimurium by Ames test in presence of S9 liver fraction; type: toxicity, organism-based; details: salmonella enterica subsp. enterica serovar typhimurium
# Salmonella typhimurium [17] = test: Mutagenicity in Salmonella typhimurium by Ames test in absence of S9 liver fraction; type: toxicity, organism-based; details: salmonella enterica subsp. enterica serovar typhimurium
# [18] = Fraction unbound in Wistar Hannover rat plasma at 2 mg/kg, iv administered as single dose; type: ADME, organism-based
# [19] = molecular target: D(2) dopamine receptor (Homo sapiens) (UniProt P14416); test: Activity at dopamine D2 receptor (unknown origin)
# [20] = molecular target: 5-hydroxytryptamine receptor 2A (Homo sapiens) (UniProt P28223); test: Activity at 5HT2A receptor (unknown origin)
# Homo sapiens = species on record: Homo sapiens; test: Activity at PDE10 (unknown origin)
# [21] = Clearance in Wistar Hannover rat at 2 mg/kg, iv administered as single dose; type: ADME, organism-based; details: in vivo
# [22] = as §2; type: ADME, organism-based; details: Wistar Hannover, in vivo
# [23] = Substrate activity at human P-gp assessed as apparent permeability; type: ADME
# P-gp [24] = test: Substrate activity at rat P-gp assessed as efflux ratio of apparent permeability from basolateral to apical side to apical to basolateral side; type: ADME; details: not told
# P-gp [25] = test: Substrate activity at rat P-gp assessed as apparent permeability; type: ADME; details: not told
# [26] = molecular target: T1, Metabotropic glutamate receptor 2; test: Agonist activity at recombinant human mGlu2 receptor expressed in CHO cells assessed as potentiation of glutamate-induced effect preincubated for 5 mins followed by glutamate stimulation for 3 mins by Fluo-4AM staining-based FLIPR assay; type: cell-based
# [27] = molecular target: T1, Metabotropic glutamate receptor 2; test: Positive allosteric modulation of recombinant human mGlu2 receptor expressed in CHO cells assessed as decrease in glutamate EC50 at 1 uM preincubated for 5 mins followed by glutamate stimulation for 3 mins by Fluo-4AM staining-based FLIPR assay relative to control; type: cell-based
# Target sequence in this assay (Q14416 19-872 limits assumed): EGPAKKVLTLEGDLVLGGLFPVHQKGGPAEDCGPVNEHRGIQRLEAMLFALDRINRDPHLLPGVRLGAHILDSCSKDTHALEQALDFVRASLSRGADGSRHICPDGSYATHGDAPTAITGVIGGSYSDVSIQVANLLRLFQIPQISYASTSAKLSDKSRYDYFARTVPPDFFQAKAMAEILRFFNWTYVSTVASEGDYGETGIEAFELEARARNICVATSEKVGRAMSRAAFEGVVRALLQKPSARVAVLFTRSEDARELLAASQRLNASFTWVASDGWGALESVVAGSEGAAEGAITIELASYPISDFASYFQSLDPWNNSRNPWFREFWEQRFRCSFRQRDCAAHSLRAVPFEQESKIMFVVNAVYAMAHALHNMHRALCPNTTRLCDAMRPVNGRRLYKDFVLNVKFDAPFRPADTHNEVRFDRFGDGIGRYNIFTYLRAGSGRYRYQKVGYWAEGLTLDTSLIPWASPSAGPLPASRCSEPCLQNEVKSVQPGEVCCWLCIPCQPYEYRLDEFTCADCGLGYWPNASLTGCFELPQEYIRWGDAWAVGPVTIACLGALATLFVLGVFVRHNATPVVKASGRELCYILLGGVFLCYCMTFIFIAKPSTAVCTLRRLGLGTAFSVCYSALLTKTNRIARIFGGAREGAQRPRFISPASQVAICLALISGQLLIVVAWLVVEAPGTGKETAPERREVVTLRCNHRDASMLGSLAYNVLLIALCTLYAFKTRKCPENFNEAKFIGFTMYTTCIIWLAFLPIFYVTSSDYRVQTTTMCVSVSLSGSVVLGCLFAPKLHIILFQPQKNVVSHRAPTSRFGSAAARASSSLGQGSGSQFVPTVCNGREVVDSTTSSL
# [28] = Clearance in Beagle dog at 0.5 mg/kg, iv administered as single dose; type: ADME, organism-based, Canis lupus familiaris; details: in vivo
# [29] = AUC in Beagle dog at 1 mg/kg, po administered as single dose; type: ADME, organism-based, Canis lupus familiaris; details: in vivo
# [30] = Oral bioavailability in Beagle dog at 1 mg/kg administered as single dose; type: ADME, organism-based, Canis lupus familiaris; details: in vivo
# [31] = Intrinsic clearance in dog liver microsomes at 10 uM incubated for 20 to 60 mins by LC-HRMS analysis in presence of NADPH/GSH; type: ADME, Canis lupus familiaris; details: read-out: CLH
# Rattus norvegicus [32] = test: Antipsychotic activity in Sprague-Dawley rat assessed as inhibition of MK-801-induced hyperlocomotive activity at 10 mg/kg, treated for 30 mins followed by MK-801 challenge measured over 90 mins relative to vehicle control; type: functional, organism-based
# Plasma = test: Plasma concentration in Sprague-Dawley rat at 10 mg/kg, po; type: ADME, organism-based; details: in vivo
# CYP3A4 [33] = molecular target: T2, CYP3A4; test: (§3) Time dependent inhibition of CYP3A4 in human liver microsomes; type: ADME; details: human, liver microsomes
# Cytochrome P450 3A4 = Cytochrome P450 3A4 (Homo sapiens, UniProt P08684); test: as §3; type: ADME
# [34] = molecular target: Metabotropic glutamate receptor 2 (Rattus norvegicus, UniProt P31421); test: Positive allosteric modulation of rat mGlu2 receptor assessed as potentiation of glutamate-induced effect by Fluo-4AM staining-based FLIPR assay
# Metabotropic glutamate receptor 6, sequence (O15303 whole entry): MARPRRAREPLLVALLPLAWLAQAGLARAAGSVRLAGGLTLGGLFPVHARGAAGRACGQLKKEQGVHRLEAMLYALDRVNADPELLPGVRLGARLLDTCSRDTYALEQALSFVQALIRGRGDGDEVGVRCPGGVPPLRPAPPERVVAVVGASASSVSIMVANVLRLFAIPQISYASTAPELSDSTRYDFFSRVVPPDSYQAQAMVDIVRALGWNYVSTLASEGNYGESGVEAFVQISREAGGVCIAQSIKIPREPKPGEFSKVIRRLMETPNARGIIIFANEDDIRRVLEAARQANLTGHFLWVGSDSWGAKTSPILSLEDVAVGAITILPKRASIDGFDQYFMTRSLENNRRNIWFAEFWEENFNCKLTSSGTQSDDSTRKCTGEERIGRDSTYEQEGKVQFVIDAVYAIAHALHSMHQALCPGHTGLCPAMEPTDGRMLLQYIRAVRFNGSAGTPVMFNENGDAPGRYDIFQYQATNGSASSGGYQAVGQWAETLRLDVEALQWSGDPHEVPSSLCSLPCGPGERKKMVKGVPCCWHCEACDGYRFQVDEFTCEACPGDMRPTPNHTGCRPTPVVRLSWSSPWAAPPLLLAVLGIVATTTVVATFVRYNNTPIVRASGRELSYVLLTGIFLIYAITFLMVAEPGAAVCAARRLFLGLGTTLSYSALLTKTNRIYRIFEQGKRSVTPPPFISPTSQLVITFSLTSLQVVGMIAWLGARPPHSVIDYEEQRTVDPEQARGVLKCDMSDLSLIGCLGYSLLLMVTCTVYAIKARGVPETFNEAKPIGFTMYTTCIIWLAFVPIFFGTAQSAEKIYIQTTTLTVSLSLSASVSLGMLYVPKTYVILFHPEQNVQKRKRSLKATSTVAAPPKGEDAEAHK
# T2 sequence (P08684 whole entry): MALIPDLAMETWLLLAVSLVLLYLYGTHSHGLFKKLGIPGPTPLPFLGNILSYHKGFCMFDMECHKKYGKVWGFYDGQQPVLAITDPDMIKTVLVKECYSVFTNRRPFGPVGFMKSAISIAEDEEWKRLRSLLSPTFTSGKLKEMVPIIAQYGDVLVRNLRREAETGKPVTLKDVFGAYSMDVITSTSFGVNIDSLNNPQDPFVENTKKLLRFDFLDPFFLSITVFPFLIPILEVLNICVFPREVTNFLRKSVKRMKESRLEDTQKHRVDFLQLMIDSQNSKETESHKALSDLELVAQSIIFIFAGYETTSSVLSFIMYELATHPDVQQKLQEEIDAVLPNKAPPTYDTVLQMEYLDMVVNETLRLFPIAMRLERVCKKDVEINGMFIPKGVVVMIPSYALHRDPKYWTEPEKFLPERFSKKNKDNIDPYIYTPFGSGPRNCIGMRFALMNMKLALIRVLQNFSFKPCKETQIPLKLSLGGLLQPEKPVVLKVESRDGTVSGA
# Metabotropic glutamate receptor 5, sequence (P41594 whole entry): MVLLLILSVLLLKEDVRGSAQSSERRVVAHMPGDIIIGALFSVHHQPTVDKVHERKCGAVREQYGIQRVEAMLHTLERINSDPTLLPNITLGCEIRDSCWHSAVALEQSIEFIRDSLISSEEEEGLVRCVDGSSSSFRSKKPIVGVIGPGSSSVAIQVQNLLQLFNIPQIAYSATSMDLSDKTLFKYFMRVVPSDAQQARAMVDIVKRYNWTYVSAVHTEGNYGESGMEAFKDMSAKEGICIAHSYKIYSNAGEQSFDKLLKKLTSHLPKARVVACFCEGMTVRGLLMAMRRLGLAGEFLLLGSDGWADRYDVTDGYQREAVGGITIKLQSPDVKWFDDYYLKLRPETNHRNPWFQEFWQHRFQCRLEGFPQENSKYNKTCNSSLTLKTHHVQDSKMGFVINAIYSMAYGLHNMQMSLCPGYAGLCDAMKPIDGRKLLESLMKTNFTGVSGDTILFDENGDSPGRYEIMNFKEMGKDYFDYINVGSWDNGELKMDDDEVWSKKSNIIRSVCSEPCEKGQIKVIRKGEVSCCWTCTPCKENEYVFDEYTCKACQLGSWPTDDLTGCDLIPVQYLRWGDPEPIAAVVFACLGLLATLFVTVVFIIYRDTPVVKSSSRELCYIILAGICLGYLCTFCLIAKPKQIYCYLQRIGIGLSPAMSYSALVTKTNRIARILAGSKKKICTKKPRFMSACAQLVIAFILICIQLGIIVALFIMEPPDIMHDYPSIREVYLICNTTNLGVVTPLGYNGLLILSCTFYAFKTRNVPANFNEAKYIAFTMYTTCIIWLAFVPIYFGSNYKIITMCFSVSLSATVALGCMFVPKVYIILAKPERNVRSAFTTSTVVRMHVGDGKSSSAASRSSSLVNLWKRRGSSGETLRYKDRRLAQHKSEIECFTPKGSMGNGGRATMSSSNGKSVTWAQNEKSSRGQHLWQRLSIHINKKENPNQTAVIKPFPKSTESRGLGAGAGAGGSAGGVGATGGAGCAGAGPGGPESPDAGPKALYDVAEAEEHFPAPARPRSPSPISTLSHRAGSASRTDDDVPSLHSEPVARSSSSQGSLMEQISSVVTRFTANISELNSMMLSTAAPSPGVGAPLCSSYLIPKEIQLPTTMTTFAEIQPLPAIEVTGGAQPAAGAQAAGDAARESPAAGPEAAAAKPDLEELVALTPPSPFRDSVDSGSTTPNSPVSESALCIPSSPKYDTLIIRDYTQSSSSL
# Metabotropic glutamate receptor 4, sequence (Q14833 whole entry): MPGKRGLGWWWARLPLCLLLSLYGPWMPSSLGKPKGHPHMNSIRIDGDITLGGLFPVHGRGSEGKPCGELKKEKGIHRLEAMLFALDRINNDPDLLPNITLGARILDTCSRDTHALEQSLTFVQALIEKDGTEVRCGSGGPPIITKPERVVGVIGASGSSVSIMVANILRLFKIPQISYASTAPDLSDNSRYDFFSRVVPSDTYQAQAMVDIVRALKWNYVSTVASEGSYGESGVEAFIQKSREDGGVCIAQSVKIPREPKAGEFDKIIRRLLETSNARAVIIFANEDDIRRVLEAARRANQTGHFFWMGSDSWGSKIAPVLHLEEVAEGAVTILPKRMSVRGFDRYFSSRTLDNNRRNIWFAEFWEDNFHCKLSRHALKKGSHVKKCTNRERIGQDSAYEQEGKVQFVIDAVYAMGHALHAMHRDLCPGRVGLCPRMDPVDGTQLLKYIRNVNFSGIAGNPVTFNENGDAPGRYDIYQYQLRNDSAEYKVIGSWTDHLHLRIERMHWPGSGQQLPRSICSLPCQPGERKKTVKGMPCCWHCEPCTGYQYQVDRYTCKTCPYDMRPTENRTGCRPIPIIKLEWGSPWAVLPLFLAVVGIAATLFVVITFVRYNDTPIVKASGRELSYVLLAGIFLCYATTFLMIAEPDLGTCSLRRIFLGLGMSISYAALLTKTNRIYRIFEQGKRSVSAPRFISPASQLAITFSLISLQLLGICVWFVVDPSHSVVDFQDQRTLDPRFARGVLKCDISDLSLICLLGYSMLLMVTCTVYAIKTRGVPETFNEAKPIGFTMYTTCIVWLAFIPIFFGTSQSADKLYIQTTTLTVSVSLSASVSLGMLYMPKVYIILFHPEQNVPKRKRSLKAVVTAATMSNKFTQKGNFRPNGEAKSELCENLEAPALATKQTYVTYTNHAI
# Cytochrome P450 3A4, sequence (P08684 whole entry): as the sequence (P08684 whole entry) above
# D(2) dopamine receptor (Homo sapiens), sequence (P14416 whole entry): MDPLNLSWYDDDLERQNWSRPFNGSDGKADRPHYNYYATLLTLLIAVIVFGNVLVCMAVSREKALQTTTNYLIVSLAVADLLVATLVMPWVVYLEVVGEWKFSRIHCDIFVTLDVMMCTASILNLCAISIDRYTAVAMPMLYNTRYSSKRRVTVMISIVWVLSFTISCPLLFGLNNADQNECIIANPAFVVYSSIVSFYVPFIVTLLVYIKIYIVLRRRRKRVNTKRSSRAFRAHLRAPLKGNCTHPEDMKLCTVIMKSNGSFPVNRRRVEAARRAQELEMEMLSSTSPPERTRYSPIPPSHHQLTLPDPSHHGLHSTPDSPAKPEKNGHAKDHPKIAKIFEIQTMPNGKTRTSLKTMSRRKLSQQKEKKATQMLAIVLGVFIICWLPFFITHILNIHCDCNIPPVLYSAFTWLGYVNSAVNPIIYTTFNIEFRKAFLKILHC
structure (smiles),measurement,setting,value
Cn1c(=O)n(CC(C)(C)C)c2ccc(N3CC4CCC3CN4c3ncccn3)nc21 (racemic),%max,[1],65%
same,EC50,[1],37 nM
same,solubility,[2],18 µM
same,AUC,[3],3.9 µM·h
Cn1c(=O)n(CC(C)(C)C)c2ccc(N3CCCCC3)nc21,%max,[1],87%
same,EC50,[1],430 nM
same,EC50,[4],> 30 µM
same,EC50,[5],> 30 µM
same,EC50,[6],> 30 µM
same,EC50,[7],> 30 µM
Cn1c(=O)n(CC(C)(C)C)c2ccc(N3CC4CCC3CN4C(=O)c3cccnc3)nc21 (racemic),%max,[1],74%
same,EC50,[1],115 nM
same,solubility,[2],183 µM
same,half-life,[8],30 min
same,CL free,Rattus norvegicus [9],2.9 mL/min/kg
same,AUC,Rattus norvegicus [10],18 µM·h
same,F,Rattus norvegicus [11],73%
Cn1c(=O)n(CC(C)(C)C)c2ccc(C3CCN(C(=O)c4ccon4)CC3)nc21,%max,[1],79%
same,EC50,[1],531 nM
same,inhibition at 10 µM,CYP3A4 [12],7%
Cn1c(=O)n(CC(C)(C)C)c2ccc(C3=C[C@@H]4CC[C@H]3CN4C(=O)c3ccon3)nc21,fraction unbound,[13],0.02
same,%max,[1],78%
same,EC50,[4],> 30 µM
same,EC50,[5],> 30 µM
same,EC50,[6],> 30 µM
same,EC50,[7],> 30 µM
same,half-life,[14],960 min
same,half-life,[8],600 min
same,CL free,Rattus norvegicus [9],17 mL/min/kg
same,inhibition at 10 µM,CYP3A4 [12],6%
same,CL free,Canis familiaris,4.7 mL/min/kg
same,Activity,Rattus norvegicus [15],Active
same,concentration,Cerebrospinal fluid,61 nM
same,Activity,Salmonella typhimurium [16],Non-toxic
same,Activity,Salmonella typhimurium [17],Non-toxic
same,fraction unbound,[18],0.02
same,Activity,[19],inactive
same,Activity,[20],inactive
same,Activity,Homo sapiens,inactive
Cn1c(=O)n(CC(C)(C)C)c2ccc(N3CC4CCC3CN4)nc21 (racemic),%max,[1],71%
same,EC50,[1],1290 nM
same,EC50,[4],> 30 µM
same,EC50,[5],> 30 µM
same,EC50,[6],> 30 µM
same,EC50,[7],> 30 µM
Cn1c(=O)n(CC(C)(C)C)c2ccc(N3CCCC4CCCCC43)nc21 (mixture of isomers),%max,[1],77%
same,EC50,[1],2200 nM
same,EC50,[4],> 30 µM
same,EC50,[5],> 30 µM
same,EC50,[6],> 30 µM
same,EC50,[7],> 30 µM
Cn1c(=O)n(CC(C)(C)C)c2ccc(N3CC4CCC3CN4C(=O)c3ccccc3)nc21 (racemic),%max,[1],71%
same,EC50,[1],36 nM
same,solubility,[2],66 µM
same,half-life,[8],72 min
same,clearance,[21],69 mL/min/kg
same,CL free,Rattus norvegicus [9],35 mL/min/kg
same,AUC,[3],2 µM·h
same,bioavailability,[22],10%
Cn1c(=O)n(CC(C)(C)C)c2ccc(N3CC4CCC3CN4C(=O)OC(C)(C)C)nc21 (racemic),%max,[1],70%
same,EC50,[1],125 nM
same,EC50,[4],> 30 µM
same,EC50,[5],> 30 µM
same,EC50,[6],> 30 µM
same,EC50,[7],> 30 µM
Cn1c(=O)n(CC(C)(C)C)c2ccc(N3CCCc4ccccc43)nc21,%max,[1],60%
same,EC50,[1],332 nM
same,EC50,[4],> 30 µM
same,EC50,[5],> 30 µM
same,EC50,[6],> 30 µM
same,EC50,[7],> 30 µM
Cn1c(=O)n(CC(C)(C)C)c2ccc(N3C[C@@H]4CC[C@H]3CN4C(=O)c3ccon3)nc21,fraction unbound,[13],0.08
same,Activity,[23],Not Active
same,efflux ratio,P-gp [24],1.5
same,Papp,P-gp [25],31 ×10⁻⁶ cm/s
same,%max,[1],78%
same,EC50,[1],29 nM
same,%max,[26],35%
same,EC50,[26],668 nM
same,fold change (FC),[27],12
same,EC50,[4],> 30 µM
same,EC50,[5],> 30 µM
same,EC50,[6],> 30 µM
same,EC50,[7],> 30 µM
same,solubility,[2],125 µM
same,half-life,[14],720 min
same,half-life,[8],138 min
same,clearance,[28],7 mL/min/kg
same,clearance,[21],28 mL/min/kg
same,CL free,Rattus norvegicus [9],4.7 mL/min/kg
same,AUC,[3],14 µM·h
same,AUC,[29],1.3 µM·h
same,bioavailability,[22],72%
same,bioavailability,[30],24%
same,CLint scaled at 10 µM,[31],< 55 mL/min/kg
same,Activity,Rattus norvegicus [32],Active
same,concentration,Plasma,3.2 µM
same,kinact,CYP3A4 [33],0.00107 s⁻¹
same,Ki,Cytochrome P450 3A4,540 nM
same,TDI,"Cytochrome P450 3A4; human, microsomes",Active
same,inhibition at 10 µM,CYP3A4 [12],73%
same,CL free,Canis familiaris,0.9 mL/min/kg
same,Activity,Rattus norvegicus [15],Active
same,fraction unbound,[18],0.06
same,EC50,[34],75 nM
Cn1c(=O)n(CC(C)(C)C)c2ccc(N3C[C@@H]4CC[C@H]3CN4C(=O)c3csnn3)nc21,Activity,[23],Not Active
same,efflux ratio,P-gp [24],1.1
same,Papp,P-gp [25],30 ×10⁻⁶ cm/s
same,%max,[1],72%
same,EC50,[1],29 nM
same,%max,[26],49%
same,EC50,[26],637 nM
same,fold change (FC),[27],26
same,EC50,[4],> 30 µM
same,EC50,[5],> 30 µM
same,EC50,[6],> 30 µM
same,EC50,[7],> 30 µM
same,solubility,[2],116 µM
same,half-life,[14],150 min
same,clearance,[28],14 mL/min/kg
same,AUC,[3],13 µM·h
Cc1cc(CN2CC3CCC2CN3c2ccc3c(n2)n(C)c(=O)n3CC(C)(C)C)no1 (racemic),%max,[1],74%
same,EC50,[1],149 nM
same,solubility,[2],186 µM
same,AUC,[3],2 µM·h
